# Measured values as given in ChEMBL document CHEMBL1201861, “Genomics of Drug Sensitity in Cancer screening data, Wellcome Trust Sanger Institute”.
# Legend:
# Assay type in all cases: functional, cell-based
# CP50-MEL-B = test: cells; conditions: Homo sapiens;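 also: growth inhibition of the human cell line, measured with a cell viability read-out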
# Description: SANGER: Inhibition of human CP50-MEL-B cell growth in a cell viability assay.
# Ca-Ski = test: cells; conditions: Homo sapiens;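 also: cell viability assay measuring inhibition of Ca-Ski cell growth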
# Description: SANGER: Inhibition of human Ca-Ski cell growth in a cell viability assay.
# CaR-1 = test: cells; conditions: Homo sapiens;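 also: growth inhibition of human CaR-1 cancer cells, read out with a cell viability assay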
# Description: SANGER: Inhibition of human CaR-1 cell growth in a cell viability assay.
# D-542MG = test: cells; conditions: Homo sapiens
# Description: SANGER: Inhibition of human D-542MG cell growth in a cell viability assay.
# Detroit 562 = test: cells; conditions: Homo sapiens;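 also: growth inhibition of human Detroit 562 cells, read out by a cell viability assay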
# Description: SANGER: Inhibition of human Detroit562 cell growth in a cell viability assay.
# EB2 = test: cells; conditions: Homo sapiens;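 also: growth inhibition of EB2 cells, read out with a cell viability assay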
# Description: SANGER: Inhibition of human EB2 cell growth in a cell viability assay.
# ECC4 = test: cells; conditions: Homo sapiens;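 also: growth inhibition of ECC4 cells, read out with a cell viability assay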
# Description: SANGER: Inhibition of human ECC4 cell growth in a cell viability assay.
# EFM-19 = test: cells; conditions: Homo sapiens;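 also: growth inhibition of human EFM-19 cells, measured in a cell viability assay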
# Description: SANGER: Inhibition of human EFM-19 cell growth in a cell viability assay.
# EGI-1 = test: cells; conditions: Homo sapiens;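 also: cell viability readout used to gauge growth inhibition of EGI-1 cells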
# Description: SANGER: Inhibition of human EGI-1 cell growth in a cell viability assay.
# EHEB = test: cells; conditions: Homo sapiens;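 also: growth inhibition of human EHEB cells, read out with a cell viability assay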
# Description: SANGER: Inhibition of human EHEB cell growth in a cell viability assay.
# GDM-1 = test: cells; conditions: Homo sapiens;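 also: cell viability readout used to measure growth inhibition of human GDM-1 cells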
# Description: SANGER: Inhibition of human GDM-1 cell growth in a cell viability assay.
# HPAF-II = test: cells; conditions: Homo sapiens;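 also: growth inhibition of HPAF-II cells, read out with a cell viability assay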
# Description: SANGER: Inhibition of human HPAF-II cell growth in a cell viability assay.
# HT-3 = test: cells; conditions: Homo sapiens;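 also: growth inhibition measured with a cell viability readout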
# Description: SANGER: Inhibition of human HT-3 cell growth in a cell viability assay.
# IM-9 = test: SANGER: Inhibition of human IM-9 cell growth in a cell viability assay.
# JIYOYE = test: cells; conditions: Homo sapiens
# Description: SANGER: Inhibition of human JiyoyeP-2003 cell growth in a cell viability assay.
# K052 = test: cells; conditions: Homo sapiens;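 also: Read-out from a cell viability assay, IC50 reflecting suppression of K052 cell growth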
# Description: SANGER: Inhibition of human K052 cell growth in a cell viability assay.
# KP-4 = test: cells; conditions: Homo sapiens;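 also: human KP-4 cells, with growth inhibition read out through a cell viability assay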
# Description: SANGER: Inhibition of human KP-4 cell growth in a cell viability assay.
# KYSE-140 = test: cells; conditions: Homo sapiens;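 also: cell viability assay measuring growth inhibition in human KYSE-140 cells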
# Description: SANGER: Inhibition of human KYSE-140 cell growth in a cell viability assay.
# KYSE-450 = test: cells; conditions: Homo sapiens;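 also: cell growth inhibition measured by a viability assay in human KYSE-450 cells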
# Description: SANGER: Inhibition of human KYSE-450 cell growth in a cell viability assay.
# LC4-1 = test: cells; conditions: Homo sapiens;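 also: growth inhibition of LC4-1 cells, read out with a cell viability assay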
# Description: SANGER: Inhibition of human LC4-1 cell growth in a cell viability assay.
# M059J = test: cells; conditions: Homo sapiens;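 also: growth inhibition of M059J cells, read out with a cell viability assay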
# Description: SANGER: Inhibition of human M059J cell growth in a cell viability assay.
# NB1 = test: cells; conditions: Homo sapiens;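 also: reduction of NB1 cell proliferation, read out with a viability assay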
# Description: SANGER: Inhibition of human NB1 cell growth in a cell viability assay.
# NCI-H1963 = test: cells; conditions: Homo sapiens;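 also: cell growth inhibition of the human line, determined with a cell viability assay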
# Description: SANGER: Inhibition of human NCI-H1963 cell growth in a cell viability assay.
# NCI-H1993 = test: cells; conditions: Homo sapiens;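 also: growth inhibition of the cancer cell line, assessed with a cell viability assay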
# Description: SANGER: Inhibition of human NCI-H1993 cell growth in a cell viability assay.
# NCI-H2009 = test: cells; conditions: Homo sapiens;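 also: cell viability assay measuring inhibition of NCI-H2009 cell growth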
# Description: SANGER: Inhibition of human NCI-H2009 cell growth in a cell viability assay.
# NCI-H2081 = test: cells; conditions: Homo sapiens;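 also: growth inhibition of human NCI-H2081 cells, read out with a cell viability assay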
# Description: SANGER: Inhibition of human NCI-H2081 cell growth in a cell viability assay.
# NCI-H2347 = test: cells; conditions: Homo sapiens;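 also: growth inhibition of the cell line, read out with a cell viability assay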
# Description: SANGER: Inhibition of human NCI-H2347 cell growth in a cell viability assay.
# NCI-H524 = test: cells; conditions: Homo sapiens;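 also: growth inhibition of human NCI-H524 cells, read out through a cell viability assay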
# Description: SANGER: Inhibition of human NCI-H524 cell growth in a cell viability assay.
# NCI-H727 = test: cells; conditions: Homo sapiens;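 also: growth inhibition of human NCI-H727 cells, read out with a cell viability assay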
# Description: SANGER: Inhibition of human NCI-H727 cell growth in a cell viability assay.
# NCI-H748 = test: cells; conditions: Homo sapiens;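 also: growth inhibition of NCI-H748 cells, measured by a cell viability assay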
# Description: SANGER: Inhibition of human NCI-H748 cell growth in a cell viability assay.
# NCI-H889 = test: cells; conditions: Homo sapiens;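 also: cell growth inhibition of the cell line, read out with a viability assay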
# Description: SANGER: Inhibition of human NCI-H889 cell growth in a cell viability assay.
# NCI-N87 = test: cells; conditions: Homo sapiens;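 also: growth inhibition of human NCI-N87 cells, read out with a cell viability assay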
# Description: SANGER: Inhibition of human NCI-N87 cell growth in a cell viability assay.
# OVCAR-8 = test: cells; conditions: Homo sapiens;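 also: growth inhibition of human OVCAR-8 cells, read out by a cell viability assay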
# Description: SANGER: Inhibition of human OVCAR-8 cell growth in a cell viability assay.
# P12-Ichikawa = test: cells; conditions: Homo sapiens
# PF-382 = test: cells; conditions: Homo sapiens
# Description: SANGER: Inhibition of human PF-382 cell growth in a cell viability assay.
# RERF-LC-MS = test: cells; conditions: Homo sapiens;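 also: growth inhibition of human RERF-LC-MS cells, read out by a cell viability assay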
# Description: SANGER: Inhibition of human RERF-LC-MS cell growth in a cell viability assay.
# RMG-I = test: cells; conditions: Homo sapiens;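 also: growth inhibition of human RMG-I cells, read out with a cell viability assay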
# Description: SANGER: Inhibition of human RMG-I cell growth in a cell viability assay.
# RPMI-6666 = test: cells; conditions: Homo sapiens
# Description: SANGER: Inhibition of human RPMI-6666 cell growth in a cell viability assay.
# RPMI-7951 = test: cells; conditions: Homo sapiens
# Description: SANGER: Inhibition of human RPMI-7951 cell growth in a cell viability assay.
# RVH-421 = test: cells; conditions: Homo sapiens
# Description: SANGER: Inhibition of human RVH-421 cell growth in a cell viability assay.
# SK-MEL-24 = test: cells; conditions: Homo sapiens;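 also: growth inhibition read out by a cell viability assay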
# Description: SANGER: Inhibition of human SK-MEL-24 cell growth in a cell viability assay.
# SK-N-AS = test: cells; conditions: Homo sapiens;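 also: growth inhibition of human SK-N-AS cells, measured with a cell viability assay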
# Description: SANGER: Inhibition of human SK-N-AS cell growth in a cell viability assay.
# SUP-T1 = test: cells; conditions: Homo sapiens;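 also: growth inhibition of human SUP-T1 cells, read out as cell viability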
# Description: SANGER: Inhibition of human SUP-T1 cell growth in a cell viability assay.
# SW1463 = test: cells; conditions: Homo sapiens;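 also: growth inhibition of SW1463 cells, determined with a cell viability assay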
# Description: SANGER: Inhibition of human SW1463 cell growth in a cell viability assay.
# SW948 = test: cells; conditions: Homo sapiens;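 also: growth inhibition of SW948 cells, read out with a cell viability assay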
# Description: SANGER: Inhibition of human SW948 cell growth in a cell viability assay.
# T47D = test: cells; conditions: Homo sapiens;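 also: growth inhibition of human T47D cells, measured with a cell viability assay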
# Description: SANGER: Inhibition of human T47D cell growth in a cell viability assay.
# T84 = test: cells; conditions: Homo sapiens;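 also: growth inhibition measured with a cell viability readout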
# Description: SANGER: Inhibition of human T84 cell growth in a cell viability assay.
# 769-P = test: cells; conditions: Homo sapiens
# Description: SANGER: Inhibition of human 769-P cell growth in a cell viability assay.
# AGS = test: cells; conditions: Homo sapiens;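 also: growth inhibition of AGS cells, determined with a cell viability assay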
# Description: SANGER: Inhibition of human AGS cell growth in a cell viability assay.
# AU565 = test: cells; conditions: Homo sapiens;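 also: cell viability assay measuring growth inhibition of human AU565 cells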
# Description: SANGER: Inhibition of human AU565 cell growth in a cell viability assay.
# BC-3 = test: cells; conditions: Homo sapiens;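 also: cell viability assay measuring growth inhibition of human BC-3 cells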
# Description: SANGER: Inhibition of human BC-3 cell growth in a cell viability assay.
# BFTC-909 = test: cells; conditions: Homo sapiens
# Description: SANGER: Inhibition of human BFTC-909 cell growth in a cell viability assay.
# C32 = test: cells; conditions: Homo sapiens;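 also: cell viability assay, with IC50 reflecting inhibition of C32 cell growth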
# Description: SANGER: Inhibition of human C32 cell growth in a cell viability assay.
# CAL-51 = test: cells; conditions: Homo sapiens;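 also: human CAL-51 cell line, growth inhibition read out via a cell viability assay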
# Description: SANGER: Inhibition of human CAL-51 cell growth in a cell viability assay.
# CAL-85-1 = test: cells; conditions: Homo sapiens;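 also: growth inhibition of human CAL-85-1 cells, read out with a cell viability assay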
# Description: SANGER: Inhibition of human CAL-85-1 cell growth in a cell viability assay.
# TGW = test: cells; conditions: Homo sapiens;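 also: growth inhibition of human TGW cells, read out with a cell viability assay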
# Description: SANGER: Inhibition of human TGW cell growth in a cell viability assay.
# THP-1 = test: cells; conditions: Homo sapiens;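 also: growth inhibition of THP-1 cells, read out via a cell viability assay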
# Description: SANGER: Inhibition of human THP-1 cell growth in a cell viability assay.
# TYK-nu = test: cells; conditions: Homo sapiens;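 also: growth inhibition of human TYK-nu cells, read out by a cell viability assay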
# Description: SANGER: Inhibition of human TYK-nu cell growth in a cell viability assay.
# UO-31 = test: cells; conditions: Homo sapiens
# Description: SANGER: Inhibition of human U031 cell growth in a cell viability assay.
# U-251 = test: cells; conditions: Homo sapiens;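 also: growth inhibition of human U-251 cells, read out through a cell viability assay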
# Description: SANGER: Inhibition of human U251 cell growth in a cell viability assay.
# UACC-812 = test: cells; conditions: Homo sapiens
# Description: SANGER: Inhibition of human UACC-812 cell growth in a cell viability assay.
# UACC-893 = test: cells; conditions: Homo sapiens
# Description: SANGER: Inhibition of human UACC-893 cell growth in a cell viability assay.
# VMRC-RCZ = test: cells; conditions: Homo sapiens
# Description: SANGER: Inhibition of human VMRC-RCZ cell growth in a cell viability assay.
# WSU-NHL = test: cells; conditions: Homo sapiens;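 also: growth inhibition of human WSU-NHL cells, read out with a cell viability assay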
# Description: SANGER: Inhibition of human WSU-NHL cell growth in a cell viability assay.
# YAPC = test: cells; conditions: Homo sapiens
# Description: SANGER: Inhibition of human YAPC cell growth in a cell viability assay.
# COLO-679 = test: cells; conditions: Homo sapiens
# Description: SANGER: Inhibition of human COLO-679 cell growth in a cell viability assay.
smiles,measurement,setting,value
C/C(O)=C(\C#N)C(=O)Nc1cc(Br)ccc1Br,IC50,CP50-MEL-B,> 16 µM
same,IC50,Ca-Ski,> 16 µM
same,IC50,CaR-1,> 16 µM
same,IC50,D-542MG,> 16 µM
same,IC50,Detroit 562,> 16 µM
same,IC50,EB2,> 16 µM
same,IC50,ECC4,> 16 µM
same,IC50,EFM-19,> 16 µM
same,IC50,EGI-1,> 16 µM
same,IC50,EHEB,> 16 µM
same,IC50,GDM-1,> 16 µM
same,IC50,HPAF-II,> 16 µM
same,IC50,HT-3,> 16 µM
same,IC50,IM-9,> 16 µM
same,IC50,JIYOYE,> 16 µM
same,IC50,K052,> 16 µM
same,IC50,KP-4,> 16 µM
same,IC50,KYSE-140,> 16 µM
same,IC50,KYSE-450,> 16 µM
same,IC50,LC4-1,> 16 µM
same,IC50,M059J,> 16 µM
same,IC50,NB1,> 16 µM
same,IC50,NCI-H1963,> 16 µM
same,IC50,NCI-H1993,> 16 µM
same,IC50,NCI-H2009,> 16 µM
same,IC50,NCI-H2081,> 16 µM
same,IC50,NCI-H2347,> 16 µM
same,IC50,NCI-H524,> 16 µM
same,IC50,NCI-H727,> 16 µM
same,IC50,NCI-H748,> 16 µM
same,IC50,NCI-H889,> 16 µM
same,IC50,NCI-N87,> 16 µM
same,IC50,OVCAR-8,> 16 µM
same,IC50,P12-Ichikawa,> 16 µM
same,IC50,PF-382,> 16 µM
same,IC50,RERF-LC-MS,> 16 µM
same,IC50,RMG-I,> 16 µM
same,IC50,RPMI-6666,> 16 µM
same,IC50,RPMI-7951,> 16 µM
same,IC50,RVH-421,> 16 µM
same,IC50,SK-MEL-24,> 16 µM
same,IC50,SK-N-AS,> 16 µM
same,IC50,SUP-T1,> 16 µM
same,IC50,SW1463,> 16 µM
same,IC50,SW948,> 16 µM
same,IC50,T47D,> 16 µM
same,IC50,T84,> 16 µM
same,IC50,769-P,> 16 µM
same,IC50,AGS,> 16 µM
same,IC50,AU565,> 16 µM
same,IC50,BC-3,> 16 µM
same,IC50,BFTC-909,> 16 µM
same,IC50,C32,> 16 µM
same,IC50,CAL-51,> 16 µM
same,IC50,CAL-85-1,> 16 µM
same,IC50,TGW,> 16 µM
same,IC50,THP-1,> 16 µM
same,IC50,TYK-nu,> 16 µM
same,IC50,UO-31,> 16 µM
same,IC50,U-251,> 16 µM
same,IC50,UACC-812,> 16 µM
same,IC50,UACC-893,> 16 µM
same,IC50,VMRC-RCZ,> 16 µM
same,IC50,WSU-NHL,> 16 µM
same,IC50,YAPC,> 16 µM
same,IC50,COLO-679,> 16 µM
CC(O)(CS(=O)(=O)c1ccc(F)cc1)C(=O)Nc1ccc(C#N)c(C(F)(F)F)c1 (configuration not stated) [BICALUTAMIDE],IC50,CP50-MEL-B,> 1.02 µM
same,IC50,Ca-Ski,> 1.02 µM
same,IC50,CaR-1,> 1.02 µM
same,IC50,D-542MG,> 1.02 µM
same,IC50,Detroit 562,> 1.02 µM
same,IC50,EB2,> 1.02 µM
same,IC50,ECC4,> 1.02 µM
same,IC50,EFM-19,> 1.02 µM
same,IC50,EGI-1,> 1.02 µM
same,IC50,EHEB,> 1.02 µM
same,IC50,GDM-1,> 1.02 µM
same,IC50,HPAF-II,> 1.02 µM
same,IC50,HT-3,0.731 µM
same,IC50,IM-9,> 1.02 µM
same,IC50,JIYOYE,> 1.02 µM
same,IC50,K052,> 1.02 µM
same,IC50,KP-4,> 1.02 µM
same,IC50,KYSE-140,> 1.02 µM
same,IC50,KYSE-450,> 1.02 µM
same,IC50,LC4-1,> 1.02 µM
same,IC50,M059J,> 1.02 µM
same,IC50,NB1,> 1.02 µM
same,IC50,NCI-H1963,> 1.02 µM
same,IC50,NCI-H1993,> 1.02 µM
same,IC50,NCI-H2009,> 1.02 µM
same,IC50,NCI-H2081,> 1.02 µM
same,IC50,NCI-H2347,> 1.02 µM
same,IC50,NCI-H524,> 1.02 µM
same,IC50,NCI-H727,> 1.02 µM
same,IC50,NCI-H748,> 1.02 µM
same,IC50,NCI-H889,> 1.02 µM
same,IC50,NCI-N87,> 1.02 µM
same,IC50,OVCAR-8,> 1.02 µM
same,IC50,P12-Ichikawa,> 1.02 µM
same,IC50,PF-382,> 1.02 µM
same,IC50,RERF-LC-MS,> 1.02 µM
same,IC50,RMG-I,> 1.02 µM
same,IC50,RPMI-6666,> 1.02 µM
same,IC50,RPMI-7951,> 1.02 µM
same,IC50,RVH-421,> 1.02 µM
same,IC50,SK-MEL-24,> 1.02 µM
same,IC50,SK-N-AS,> 1.02 µM
same,IC50,SUP-T1,> 1.02 µM
same,IC50,SW1463,> 1.02 µM
same,IC50,SW948,> 1.02 µM
same,IC50,T47D,> 1.02 µM
same,IC50,T84,> 1.02 µM
same,IC50,769-P,> 1.02 µM
same,IC50,AGS,> 1.02 µM
same,IC50,AU565,> 1.02 µM
same,IC50,BC-3,> 1.02 µM
same,IC50,BFTC-909,> 1.02 µM
same,IC50,C32,> 1.02 µM
same,IC50,CAL-51,> 1.02 µM
same,IC50,CAL-85-1,> 1.02 µM
same,IC50,TGW,> 1.02 µM
same,IC50,THP-1,> 1.02 µM
same,IC50,TYK-nu,> 1.02 µM
same,IC50,UO-31,> 1.02 µM
same,IC50,U-251,> 1.02 µM
same,IC50,UACC-812,> 1.02 µM
same,IC50,UACC-893,> 1.02 µM
same,IC50,VMRC-RCZ,> 1.02 µM
same,IC50,WSU-NHL,> 1.02 µM
same,IC50,YAPC,> 1.02 µM
same,IC50,COLO-679,> 1.02 µM
